Results: patent US20160022762A1, “Agent for Eliminating Multidrug Resistance” (priority 2008, published 2016)
Entries after “also recorded” stand apart in the source; their conditions may differ. Peptide text beside a SMILES is read from it.

Columns and labels:
[1] = system: stage III cervical carcinoma; assay: clinical case, chemoradiotherapy with hexapeptide (Example 5); format: in vivo, human
Method: Patient. Clinical diagnosis: stage III cervical carcinoma (T3NX-1M0). Examination of the patient included clinical and laboratory assessment both at admission and during treatment. […] general condition was of moderate severity. […] The percentage of CD3, CD4, CD8, CD16-positive cells was decreased relative to the average statistical normal values 2-fold. The person prior to antineoplastic treatment had received a course of 5-time administration of the hexapeptide in the form of 1 ml of 0.005% solution subcutaneously daily for 5 days. Chemoradiotherapy was carried out according to the regimen: 500 mg of 5-fluorouracil (total dose 2,500 mg). During the whole course of chemoradiotherapy, the person received 1 ml of 0.005% solution of the hexapeptide (biopoetin) 5 times daily. Two days after discontinuation of 5-fluorouracil, the patient underwent remote irradiation at a single dose of 4 Gy on the background of intravenous administration of 30 mg of cysplastin for 3 days (total dose of cysplastin amounting to 90 mg). Then radiotherapy was continued in the mode of a daily multifractionated dose. Irradiation was carried out up to a focal dose of 20 Gy onto the area of the primary focus and zones of regional metastatic spreading, followed by additional intracavitary gamma-therapy (10 fractions 5 Gy each) and remote irradiation was continued onto the zones of parametrial metastatic spreading up to the total dose amounting to 44 Gy.

[2] = in vivo
MRP [3] = biological target: T1, MRP (Mus musculus, UniProt O35379); assay: calcein formation rate in R388VR cells in the presence of Co2+ (extracellular calcein quenching); details: presence of Co, 12 μM
[4] = system: human laryngeal cancer cells Hep-2; assay: survival of Hep-2 cells exposed to arsenate (crystal violet); format: cell-based
Method: The human laryngeal cancer cells Hep-2 in Dulbecco's modified Eagle's medium (hereinafter referred to as DMEM) (Sigma) supplemented with 10% foetal calf serum (Sigma) and 40 μg/ml of gentamycin (Sigma) were sown in a 96-well culture plate, 0.1 ml per well, at a concentration of 50,000/ml, followed by adding the agents being examined and incubating for 72 hour at 37° C. in an atmosphere of 5% CO2 in air. After incubation, the cells were stained with 0.02% crystal violet solution (Sigma) in 20% ethanol for 10 minutes followed by discarding the stainer solution, washing the cells with water and adding a 0.1% SDS solution for the extraction of the stainer from the cells. The optical density was measured at 570 nm on the spectrophotometer Multiscan Plus. The effect was determined by the formula: No/Nk=(Do−D)/(Dk−D) 100%, where Do, Dk, D are optical densities in the experiment, control, and the background one, respectively, and No/Nk is the cell survival rate: the number of the live cells in the experiment in relation to the control.

[5] = preclinical and clinical studies: toxic reaction and side effects; format: in vivo
[6] = system: squamous-cell oesophageal cancer; format: in vivo, human
Method: The disease was manifested by retrosternal pain, weakness, weight loss. […] Prior to chemoradiotherapy, the patient was given the hexapeptide in the form of a suppository at a dose of 5 mg five times daily for 5 days. The first stage of combined-modality treatment consisted of two courses of polychemotherapy. During the whole period of chemoradiotherapy, the patient received treatment with the proposed agent in the form of rectal suppositories 5 μg twice daily (in the morning and evening).

[7] = system: multidrug resistance proteins in the Hep-2 cells; assay: calcein formation rate in Hep-2 cells with Co2+ ions; format: cell-based, human; set-up: calcein formation rate increment ratio: dose or concentration left out as unconfirmed; details: Co2+ ions present
MRP [8] = biological target: T1, MRP; assay: calcein efflux rate from preliminarily calcein-loaded R388VR cells
Hep-2 cells = assay: growth of Hep-2 tumour cells (trypan blue count); format: cell-based, human; details: 1 μg/ml, three days
Method: Human laryngeal cancer cells Hep-2 in DMEM medium supplemented with 10% foetal calf serum and 40 μg/ml gentamycin were inoculated in 2-ml penicillin-containing vials, 200 thousand per each vial. The hexapeptide at a dose of 1 μg/ml was added 3 hours after cell inoculation (when they had already adhered to glass) and left in the medium for the whole period of incubation. Three days after inoculation, the cells were detached from glass with trypsin, followed by calculating the number of the living cells: unstained with a 0.04% solution of trypan blue.

P-gp = assay: calcein formation rate from calcein AM in R388VR cells without Co2+; details: up to 1.2 μM
Excerpt: The rate of calcein formation in the dish with calcein AM added without Co2+ ions makes it possible to determine the activity of the transport proteins expelling calcein AM out of cells, rather than that of the proteins capable of transporting calcein from the cells (MRP), since in this case total calcein is registered: both intra- and extracellular.

breast cancer T4cN2M0 = assay: clinical case, radiotherapy and CMF polychemotherapy with hexapeptide intranasal spray (Example 8); format: in vivo, human
Excerpt: Onto the area of the left breast from two tangential opposed fields and with the figured field onto the zones of regional lymph outflow on the left radiotherapy was begun using linear accelerator (LU-20-SL with the deceleration-radiation energy of 6 MeV) in the mode of average dose fractionating, at 3 Gy daily 5 times a week onto the area of the tumour up to the total focal dose (TFD) 45 Gy equivalent to the mode of the conventional fractionation consisting of 2 Gy a day, with TFD 60 Gy, and onto the zones of regional lymph outflow on the left (supraclavicular, subclavicular, axillary and parasternal sites) at a single dose of 3 Gy up to the TFD 33-36 Gy equivalent to 44-48 Gy of the conventional fractionation.
The patient's state after the irradiation course was satisfactory, with the tumour ulceration being at the scarring stage and virtually no discharge. Two weeks later, polychemotherapy was begun according to the CMF regimen carried out for 4 weeks once a week. During 5 days prior to commencing chemotherapy, the person daily received the hexapeptide in the form of an intranasal dosed spray […] at a single dose of 100 μg. The CMF regimen included intravenous drip administration of 1 g of 5-fluorouracil and 40 mg of methotrexate and intramuscular administration of 1 g cyclophosphane. During polychemotherapy, the patients daily received the hexapeptide in the form of an intranasal dosed spray, with the single dose equalling 100 μg.
A repeat course of CMF. The patient received intravenously 40 mg of methotrexate and 1 g of 5-fluorouracil and intramuscularly 1 g of cyclophosphane. The state after polychemotherapy was satisfactory. A cicatrix formed on the site of the previous breast ulceration. Regional lymph nodes were not perceived, the breast was soft to the touch, with no fresh infiltrates. On the mammograms, the tumour node as compared with the findings of mammography obtained at the beginning of treatment had decreased to 5 mm in diameter. Then sequentially a course of polychemotherapy was carried out according to the same regimen and in the same doses. During 5 days prior to commencing chemotherapy, the patient daily received hexapeptide in the form of an intranasal dosed spray 5 times a day at a single does of 100 μg. During polychemotherapy, the patient daily received hexapeptide in the form of an intranasal dosed spray 5 times a day at a single does of 100 μg.

local irritating effect = details: in vivo
[9] = system: stage III oesophageal cancer; format: in vivo, human
Method: Clinical diagnosis: stage III oesophageal cancer (T3-4N0-2MOP3). At admission, the patient's general condition of moderate severity. The laboratory indices of the total blood count without pronounced alterations. Noted was a considerable disbalance of the indices of the oxidative-antioxidative system on the background moderate-degree immunosuppression. The state of the oxidative-antioxidative system in the patients was assessed by intensity of lipid peroxidation via measuring blood serum concentration of malonic dialdehyde (MDA, μmol/L) and endogenous antioxidants: lactoferrin (LF, mg/L), caeruloplasmin (CP, conventional units), and the antioxidant enzyme catalase (CAT, conventional units). The analysis of percentage content of the main subpopulations of T-lymphocytes was carried out to superficial receptors of CD3 (T-lymphocytes), CD4 (T-helpers/inducers), CD8 (T-suppressors/cytotoxic lymphocytes), CD16 (natural killers), CD25 (activated lymphocytes expressing the receptor to interleukin-2), CD72 (B-lymphocytes). […] At the same time, the indices of the lymphocytic link were virtually within the normal values. Since CP and LF are proteins of the acute phase of inflammation, an increase in the blood serum reflected the presence of an inflammatory process accompanying the development of oesophageal cancer. Prior to chemoradiotherapy, the patient received intramuscular administration of the hexapeptide daily at a single dose of 1 ml of 0.1% solution 5 times a day for 5 days. Comprehensive chemoradiotherapy was carried out according to the following regimen: 750 mg of 5-fluorouracil (5-FU) was administered intravenously for 5 days (total dose 3,750 mg), two days after the end of administration of 5-FU, the patients was irradiated according to the regimen of dynamic fractionation of the dose at a single dose of 4 Gy on the background of intravenous administration of cysplastin at a dose of 30 mg for 3 days (total dose of cysplastin 90 mg, total focal dose 12 Gy). During the whole period of chemoradiotherapy, the patients was given hexapeptide at a single dose of 100 μg twice daily (in the morning and evening). Commencing from day 11, radiotherapy was continued in the mode of the classical fractionated dose, with the single dose equalling 2 Gy (total focal dose 40 Gy).

[10] = solubility of the active principle; format: physicochemical
[11] = system: multidrug resistance-associated transport proteins in Hep-2 cells; assay: rhodamine 123 efflux rate from Hep-2 cells
Method: While studying the effect of the inhibitors on the release of Rh123, to the cuvette after several minutes of the normal excretion of the stainer we added the inhibitor in the required concentration. Determining the control and inhibited constants of rhodamine excretion rates on one plate decreases the error of determining their ratio, necessary for obtaining the R value. […] The total amount of rhodamine in the cells was determined by the difference of the fluorescence levels after adding digitonin and before adding cells to the cuvette. The relative amount of Rh123 in the cells (N) was determined according to the following formula: N=1−{It−I0/Imax−I0}, where It, I0, Imax are the values of fluorescence of Rh123 in the medium at the time moments t, 0 and the peak fluorescence after adding digitonin, respectively.
The effect of each concentration of the agents on Rh123 excretion was determined in several experiments.

tumour cells = details: calcium channel blocker; cited from earlier work

T1 sequence (O35379 whole entry): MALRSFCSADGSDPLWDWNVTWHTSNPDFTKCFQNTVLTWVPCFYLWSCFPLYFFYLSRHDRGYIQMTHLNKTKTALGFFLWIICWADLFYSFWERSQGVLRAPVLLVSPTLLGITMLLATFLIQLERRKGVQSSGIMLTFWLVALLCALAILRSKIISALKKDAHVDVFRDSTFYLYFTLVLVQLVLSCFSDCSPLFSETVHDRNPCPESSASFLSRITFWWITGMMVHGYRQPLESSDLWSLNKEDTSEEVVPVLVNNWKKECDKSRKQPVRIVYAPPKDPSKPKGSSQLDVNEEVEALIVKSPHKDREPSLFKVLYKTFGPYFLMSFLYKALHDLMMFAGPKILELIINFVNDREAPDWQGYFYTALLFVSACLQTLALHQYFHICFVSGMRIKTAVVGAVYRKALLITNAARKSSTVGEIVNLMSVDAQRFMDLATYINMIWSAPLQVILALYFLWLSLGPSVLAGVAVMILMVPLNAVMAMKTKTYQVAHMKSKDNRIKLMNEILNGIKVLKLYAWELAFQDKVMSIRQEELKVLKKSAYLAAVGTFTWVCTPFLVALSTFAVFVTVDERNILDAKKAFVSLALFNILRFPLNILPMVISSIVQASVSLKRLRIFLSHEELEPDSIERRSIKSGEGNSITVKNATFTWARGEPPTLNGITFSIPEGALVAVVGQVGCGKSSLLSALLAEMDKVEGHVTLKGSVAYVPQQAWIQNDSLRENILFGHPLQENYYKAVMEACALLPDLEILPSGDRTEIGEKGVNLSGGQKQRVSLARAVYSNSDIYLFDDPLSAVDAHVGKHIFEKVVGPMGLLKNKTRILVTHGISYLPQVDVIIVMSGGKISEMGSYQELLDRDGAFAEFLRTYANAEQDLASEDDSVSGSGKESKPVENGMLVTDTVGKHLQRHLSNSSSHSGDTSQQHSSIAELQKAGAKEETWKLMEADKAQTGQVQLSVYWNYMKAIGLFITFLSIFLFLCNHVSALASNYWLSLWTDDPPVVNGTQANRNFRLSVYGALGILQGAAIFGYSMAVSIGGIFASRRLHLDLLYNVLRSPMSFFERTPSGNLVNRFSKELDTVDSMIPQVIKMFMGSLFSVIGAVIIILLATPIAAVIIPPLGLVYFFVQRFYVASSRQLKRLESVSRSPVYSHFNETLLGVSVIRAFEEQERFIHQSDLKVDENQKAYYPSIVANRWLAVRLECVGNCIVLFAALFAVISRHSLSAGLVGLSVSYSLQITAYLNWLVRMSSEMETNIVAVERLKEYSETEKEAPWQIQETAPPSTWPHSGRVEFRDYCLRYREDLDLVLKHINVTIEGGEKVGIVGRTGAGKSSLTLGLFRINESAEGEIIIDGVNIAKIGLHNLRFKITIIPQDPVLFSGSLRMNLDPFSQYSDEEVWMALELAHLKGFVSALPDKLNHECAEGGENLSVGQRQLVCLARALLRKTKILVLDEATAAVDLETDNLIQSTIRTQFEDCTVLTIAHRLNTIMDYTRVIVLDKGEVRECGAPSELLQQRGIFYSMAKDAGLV

NCCCC[C@H](NC(=O)CNC(=O)[C@H](Cc1c[nH]cn1)NC(=O)[C@@H](N)CCCCN)C(=O)N[C@@H](Cc1c[nH]cn1)C(=O)NCC(=O)O [hexapeptide, lysyl-histidyl-glycyl-lysyl-histidyl-glycine] (H-KHGKHG-OH)
mutagenic activity (mutagenic activity): neither allergic nor mutagenic activity
MDR development [1]: No events of MDR development were observed
indices of immunity and total blood count after chemoradiotherapy [1]: did not virtually alter
tumour outcome [1]: complete resorption of the tumour
side reactions during chemoradiotherapy ([1]; 1 ml of 0.005% solution subcutaneously): No pronounced side reactions were observed
death of laboratory animals after a single dose [2]: caused no death
increase of calcein formation rate (MRP [3]): double
increase in sensitivity of Hep-2 cells to arsenate ([4]; 1.2 nM): 3 fold
effect on sensitivity to arsenate and survival of Hep-2 cells ([4]; 50 μM arsenate): increases sensitivity of the tumour cells to the cytostatic preparation arsenate and inhibits survival of the Hep-2 cells
toxic reaction and side effects [5]: neither induces a pronounced toxic reaction nor leads to development of side effects
tumour at check-up examinations ([6]; after polychemotherapy): no oesophageal tumour perceived
metastases into lymph nodes ([6]; histology of subtotal oesophageal resection): No metastases into lymph nodes were detected
manifestations of toxicosis during polychemotherapy ([6]; human, in vivo): No markedly pronounced manifestations of toxicosis were observed
calcein formation rate increment ratio [7]: 2.6
increase of rate of calcein formation in cells ([7]; 1.2 nM): twofold
decrease of calcein excretion rate (MRP [8]; 1.2 nM): 1.5 fold
calcein excretion rate inhibition ratio (MRP [8]; 120 nM): 2.6
effect on growth of Hep-2 tumour cells (Hep-2 cells): virtually does not influence the growth
effect on calcein formation rate (P-gp): does not act upon the calcein formation rate
development of MDR (breast cancer T4cN2M0; 5th course of CMF): No development of MDR was noted
tumour node diameter on mammograms (breast cancer T4cN2M0; after repeat course of CMF): 5 mm
tumour node size on mammograms (breast cancer T4cN2M0; before fourth course of polychemotherapy): 3.8 cm
relapse or metastases at examination (breast cancer T4cN2M0; clinical and roentgenological study, check-up 15 months after the beginning of treatment): no findings suggesting either a breast tumour relapse or metastases; also recorded: no signs of the disease's relapses
tolerance of chemoradiotherapy / polychemotherapy (breast cancer T4cN2M0; intranasal dosed spray, CMF regimen): tolerated chemoradiotherapy satisfactorily; also recorded: well tolerated
local irritating effect (local irritating effect): no local irritating effect
disease relapses ([9]; 12-month follow-up): no disease relapses
indices of natural cellular and T-lymphocytic immunity, acute inflammation phase proteins ([9]; human, in vivo): did not alter substantially
symptoms of MDR ([9]; with chemoradiotherapy): No symptoms of MDR were observed
tumour outcome ([9]; with chemoradiotherapy): complete resorption of the tumour
solubility in alcohol ([10]; alcohol): not alcohol- or chloroform-soluble
solubility in chloroform ([10]; chloroform): not alcohol- or chloroform-soluble
solubility in isotonic sodium chloride solution ([10]; isotonic sodium chloride solution): readily soluble
solubility in water ([10]; water): readily soluble
optimal concentration of maximal inhibition of Rh123 excretion [11]: 1 ng/mL
R value (Rh123 excretion inhibition) ([11]; 1 ng/ml): 3.2
allergic activity (allergic activity): neither allergic nor mutagenic activity

COc1ccc(CCN(C)CCCC(C#N)(c2ccc(OC)c(OC)c2)C(C)C)cc1OC (stereo not shown) [verapamil]
dose exhibiting in vitro MDR inhibiting activity (tumour cells): approximately 10 μM
